Measurements published in patent publication US20040152650A1, “Preventing ischemia-induced cell damage” (priority 2002, published 2004).

Tests used:
cardiac myocytes [1] = assay: Peptide protection against hypoxia-acidosis death (DNA fragmentation analyses); format: cell-based, rat; settings: peptide 10 PM (20 μg/ml); for protection against hypoxia-acidosis death: 24-48 h hypoxia with acid accumulation; for protection (quantitative DNA fragmentation analyses): n=3
Experimental: (§1) Quantitative Analysis of Apoptosis. Cells were examined for morphologic evidence of apoptosis or necrosis by staining with anti-myosin antibody and the fluorescent DNA-binding dyes Hoechst 33342 and propidium iodide (PI), exactly as previously described (26;30). Genomic DNA fragmentation analyses were also as described previously (26;30).
Peptides were added to cardiac myocyte cultures at a concentration of 10 PM (20 μg/ml) in serum-free defined medium (DMEM/high glucose/TIB) as described previously (26). Control cultures contained 20 μg/ml BSA. Cultures were exposed to 24-48 h of hypoxia with acid accumulation, also as described previously (26). The results using peptide 1 (23 aa N-BNIP3) are shown in FIG. 7 (−is control +is with peptide treatment).

cardiac myocytes [2] = assay: DNA fragmentation in cardiac myocytes subjected to hypoxia-acidosis; format: cell-based, rat; settings: for Fragmentation of cardiac myocyte DNA by hypoxia-acidosis with MPTP inhibitor: 48 h time point, DUB 200 μM; for protection against DNA fragmentation with MPTP inhibitor: after 72 h hypoxia-acidosis
Experimental: Cardiac Myocyte Culture and Hypoxia. Methods utilized for the isolation and culture of primary neonatal rat cardiac myocytes and exposure to hypoxia have been described previously (28;29). Experiments were performed in defined serum-free DMEM/M-199 (4:1) medium. Oxygen was continuously monitored and maintained at <10 mm Hg.
as §1
Antisense. Antisense oligonucleotides were complementary to bases 10-40 and 600-630 of the BNIP3 gene; sequences 5′[…] (SEQ ID NO:1) and 5′[…] (SEQ ID NO:2) respectively. Random sequence oligonucleotides contained the same bases in a scrambled sequence. FITC-tagged oligonucleotides (2 μM final of each) in DMEM were mixed with lipofectamine (0.1 μg/ml, final concentration) and incubated with cardiac myocytes at 37° C. for 8 hours before treatments. Immediately before exposing to hypoxia, fresh medium with oligonucleotides was added. Fluorescence was visualized after 24, 36, and 48 hrs of exposure to hypoxia. Fresh oligonucleotides (400 nM) were added at 24 and 36 hrs.

Molecule	protection against hypoxia-acidosis death (cardiac myocytes [1])	protection (quantitative DNA fragmentation analyses) (cardiac myocytes [1]; 24 h hypoxia with acid accumulation)	protection (quantitative DNA fragmentation analyses) (cardiac myocytes [1]; 48 h hypoxia with acid accumulation)	Fragmentation of cardiac myocyte DNA by hypoxia-acidosis with MPTP inhibitor (cardiac myocytes [2])	protection against DNA fragmentation with MPTP inhibitor (cardiac myocytes [2])
GRKKRRQRRRPPQC----GDMEKILLDAQHESGRSSKSSHCDSP-(C-term) (GRKKRRQRRRPPQCGDMEKILLDAQHESGRSSKSSHCDSP; Synthetic Peptide Fragments) [Peptide 2, TAT-peptide containing N-terminal amino acids 24-49 of BNIP3]	less effective	–	–	–	–
GRKKRRQRRRPPQC-----MSQSGEENLQGSWVELHFSNGNG-(C-term) (GRKKRRQRRRPPQCMSQSGEENLQGSWVELHFSNGNG; Synthetic Peptide Fragments) [Peptide 1, TAT-peptide containing N-terminal amino acids 1-23 of BNIP3]	strong and significant protection	> 50%	> 50%	–	–
CCCCCCCCCCC1=C(C)C(=O)C(OC)=C(OC)C1=O [DUB, decylubiquinone]	–	–	–	blocked	mediated protection
CO[C@H](C/C=C\C=C\CC/C=C/C[C@H](C)/C=C/C(=C\C(=O)O)CC(=O)O)/C(C)=C\C=C(/C)C(=O)O [BA, bongrekic acid]	–	–	–	blocked	mediated protection
